# Experimental data taken from publication PMC5063900, “A phase 1 study of the safety, tolerability, pharmacokinetics, and pharmacodynamics of TAK-063, a selective PDE10A inhibitor” (Psychopharmacology, 2016).
# Marks after values point to notes of the source that are not given here.
# Experiments:
# [1] = stated in discussion without method or reference; cited from earlier work
# [2] = Plasma and urine pharmacokinetics after single oral dose under fasting conditions; format: in vivo, human; details: for AUC(0-inf) / C max / CL/F (oral clearance) / T 1/2 / Vz/F (volume of distribution) / T max: plasma
# Method: Healthy Japanese and non-Japanese subjects between 18 and 55 years of age were recruited to participate in the study. Criteria for exclusion included prior treatment with any investigational compound within 30 days of the first TAK-063 dose, a positive test for drugs of abuse or nicotine, and an increased risk for suicide. Subjects were randomized into 1 of 6 dose cohorts (3, 10, 30, 100, 300, and 1000 mg), with each cohort containing 11 TAK-063 subjects (five Japanese, six non-Japanese) and three placebo subjects (one Japanese, two non-Japanese) receiving a single dose under fasting conditions. Following a washout period of 7 days, subjects in cohort 3 (100 mg) received the same dose (100 mg) but under fed conditions. Serial plasma and urine samples were collected from all subjects prior to dosing and at specific time points or intervals up to 96 h postdose. Pharmacokinetic samples were processed immediately and frozen at −20 °C as duplicate sets. Plasma concentrations of TAK-063 and its metabolite M-I were subsequently measured by validated liquid chromatography-tandem mass spectrometry with a validated range of 0.5 to 1000 ng/mL for both analytes. The PK parameters analyzed for TAK-063 and its metabolite M-I in plasma and urine included area under the plasma concentration-time curve from time 0 to infinity (AUC (0-inf)), maximum observed plasma concentration (C max), time to reach C max (T max), terminal elimination half-life (T 1/2), oral clearance (CL/F), volume of distribution (Vz/F), and renal clearance (CLr). Metabolite-to-parent ratios were estimated from C max and AUC (0-inf) data. All statistical analyses were generated using SAS Version 9.2 (SAS, Cary, NC, USA). The PK parameters were derived using non-compartmental methods with WinNonlin Enterprise Version 6.3 (Pharsight Corp., Mountain View, CA, USA). Frequency or descriptive statistics were used for summary of data. Where indicated, percent coefficient of variation was included in the summary of continuous data. All statistical tests were 2-tailed at α = 0.05 level for significance unless otherwise stated. A power model was used to evaluate dose proportionality by race for fasted subjects; in the event of no observed race effect, dose proportionality was assessed for all subjects. To evaluate the food effect, a paired t test was performed on T max and natural log-transformed C max, and AUCs. An ANCOVA model with baseline scores and race as covariates was used to assess the effects of TAK-063 on CNSVS domain scores.
# [3] = Japanese subjects, TAK-063 3 mg (n = 5), arithmetic mean
# [4] = Japanese subjects, TAK-063 10 mg (n = 5), arithmetic mean
# [5] = Japanese subjects, TAK-063 30 mg (n = 5), arithmetic mean
# [6] = Japanese subjects, TAK-063 100 mg (n = 4), arithmetic mean
# [7] = Japanese subjects, TAK-063 100 mg (n = 5; TAK-063 n = 4), arithmetic mean
# [8] = Japanese subjects, TAK-063 300 mg (n = 4), arithmetic mean
# [9] = Japanese subjects, TAK-063 300 mg (n = 5; TAK-063 n = 4), arithmetic mean
# [10] = Japanese subjects, TAK-063 1000 mg (n = 5), arithmetic mean
# [11] = fasting, all subjects, TAK-063 3 mg (n = 11), arithmetic mean (% CV)
# [12] = fasting, all subjects, TAK-063 3 mg (n = 11; M-I n = 10), arithmetic mean (% CV)
# [13] = fasting, all subjects, TAK-063 10 mg (n = 11), arithmetic mean (% CV)
# [14] = fasting, all subjects, TAK-063 30 mg (n = 11), arithmetic mean (% CV)
# [15] = fasting, all subjects, TAK-063 100 mg (n = 9), arithmetic mean (% CV)
# [16] = fasting, all subjects, TAK-063 100 mg (n = 11; TAK-063 n = 9), arithmetic mean (% CV)
smiles,measurement,setting,value
COc1cn(-c2ccc(-n3cccn3)cc2F)nc(-c2ccnn2-c2ccccc2)c1=O [TAK-063],Aqueous solubility,[1],low
same,Increase in AUC over the dose range,"[2]; 333-fold increase in dose (3 to 1000 mg), fasting",up to 26 fold
same,AUC(0-inf),[2]; [3],250.3 ng·h/mL
same,C max,[2]; [3],16.1 ng/mL
same,CL/F (oral clearance),[2]; [3],12.5 L/h
same,T 1/2,[2]; [3],15.9 h
same,Vz/F (volume of distribution),[2]; [3],269.5 L
same,T max,"[2]; Japanese subjects, TAK-063 3 mg (n = 5), median",4.0 h
same,AUC(0-inf),[2]; [4],659.2 ng·h/mL
same,C max,[2]; [4],30.2 ng/mL
same,CL/F (oral clearance),[2]; [4],15.8 L/h
same,T 1/2,[2]; [4],18.2 h
same,Vz/F (volume of distribution),[2]; [4],412.2 L
same,T max,"[2]; Japanese subjects, TAK-063 10 mg (n = 5), median",4.0 h
same,AUC(0-inf),[2]; [5],1027.3 ng·h/mL
same,C max,[2]; [5],55.7 ng/mL
same,CL/F (oral clearance),[2]; [5],35.2 L/h
same,T 1/2,[2]; [5],17.8 h
same,Vz/F (volume of distribution),[2]; [5],889.4 L
same,T max,"[2]; Japanese subjects, TAK-063 30 mg (n = 5), median",4.0 h
same,AUC(0-inf),[2]; [6],1459.1 ng·h/mL
same,T 1/2,[2]; [6],20.7 h
same,C max,"[2]; Japanese subjects, TAK-063 100 mg (n = 5), arithmetic mean",89.9 ng/mL
same,T max,"[2]; Japanese subjects, TAK-063 100 mg (n = 5), median",3.0 h
same,CL/F (oral clearance),[2]; [7],75.8 L/h
same,Vz/F (volume of distribution),[2]; [7],2288.5 L
same,AUC(0-inf),[2]; [8],1636.0 ng·h/mL
same,T 1/2,[2]; [8],20.3 h
same,C max,"[2]; Japanese subjects, TAK-063 300 mg (n = 5), arithmetic mean",98.2 ng/mL
same,T max,"[2]; Japanese subjects, TAK-063 300 mg (n = 5), median",4.0 h
same,CL/F (oral clearance),[2]; [9],212.8 L/h
same,Vz/F (volume of distribution),[2]; [9],6409.8 L
same,AUC(0-inf),[2]; [10],4931.4 ng·h/mL
same,C max,[2]; [10],264.0 ng/mL
same,CL/F (oral clearance),[2]; [10],233.8 L/h
same,T 1/2,[2]; [10],11.7 h
same,Vz/F (volume of distribution),[2]; [10],3953.4 L
same,T max,"[2]; Japanese subjects, TAK-063 1000 mg (n = 5), median",4.0 h
same,C max,[2]; [11],11.8 (51) ng/mL
same,CL/F (oral clearance),[2]; [11],14.0 (48) L/h
same,Vz/F (volume of distribution),[2]; [11],407.0 (64) L
same,T max,"[2]; fasting, all subjects, TAK-063 3 mg (n = 11), median (minimum, maximum)","4.0 (2.0, 24.0) h"
same,AUC(0-inf),[2]; [12],244.9 (32) ng·h/mL
same,T 1/2,[2]; [12],20.4 (48) h
same,AUC(0-inf),[2]; [13],576.7 (29) ng·h/mL
same,C max,[2]; [13],26.7 (34) ng/mL
same,CL/F (oral clearance),[2]; [13],18.7 (30) L/h
same,T 1/2,[2]; [13],19.9 (18) h
same,Vz/F (volume of distribution),[2]; [13],529.5 (29) L
same,T max,"[2]; fasting, all subjects, TAK-063 10 mg (n = 11), median (minimum, maximum)","4.0 (2.0, 16.0) h"
same,AUC(0-inf),[2]; [14],1003.6 (42) ng·h/mL
same,C max,[2]; [14],46.9 (61) ng/mL
same,CL/F (oral clearance),[2]; [14],33.1 (27) L/h
same,T 1/2,[2]; [14],20.4 (30) h
same,Vz/F (volume of distribution),[2]; [14],954.8 (33) L
same,T max,"[2]; fasting, all subjects, TAK-063 30 mg (n = 11), median (minimum, maximum)","4.0 (3.0, 16.0) h"
same,AUC(0-inf),[2]; [15],1406.8 (38)^c ng·h/mL
same,T 1/2,[2]; [15],24.6 (37)^c h
same,C max,"[2]; fasting, all subjects, TAK-063 100 mg (n = 11), arithmetic mean (% CV)",80.5 (48) ng/mL
same,T max,"[2]; fasting, all subjects, TAK-063 100 mg (n = 11), median (minimum, maximum)","3.0 (1.5, 6.0) h"
same,CL/F (oral clearance),[2]; [16],80.3 (35)^c L/h
same,Vz/F (volume of distribution),[2]; [16],2802.2 (46)^c L
